Molecules are shown by their SMILES.

As usually defined, the logP is a log measure of how a compound divides between an organic and an aqueous phase.

The data set is described as follows: method code G-GLC, from Larsen, B. R., Skejo-Andreasen, H., & Pérez, A. P. (1992). Octanol-water partition coefficients of 39 polychlorinated biphenyls in an Askarel mixture. Fresenius Envir. Bull. I (Supplementum), S13-18.

`Clc1ccc(Cl)c(-c2c(Cl)c(Cl)cc(Cl)c2Cl)c1`: the log partition coefficient (logP) came out at 6.45.
Then `Clc1ccc(-c2cccc(Cl)c2Cl)cc1`, with 5.63.
Then `Clc1ccc(-c2ccc(Cl)c(Cl)c2Cl)cc1`, with 5.95.
On to `Clc1ccc(-c2c(Cl)ccc(Cl)c2Cl)cc1Cl`, for which the logP was found to be 6.22.
Next, `Clc1cc(Cl)c(-c2cccc(Cl)c2Cl)cc1Cl`: 6.28; `Clc1cc(Cl)c(-c2c(Cl)ccc(Cl)c2Cl)c(Cl)c1Cl`: 6.76.
Take `Clc1ccc(Cl)c(-c2c(Cl)ccc(Cl)c2Cl)c1`: the log partition coefficient (logP) was found to be 6.08.
Next, `Clc1ccc(Cl)c(-c2ccc(Cl)c(Cl)c2)c1`: 5.99; `Clc1ccc(-c2ccc(Cl)c(Cl)c2Cl)c(Cl)c1Cl`: 6.62.
On to `Clc1ccc(Cl)c(-c2cc(Cl)ccc2Cl)c1`, for which the log partition coefficient (logP) was 5.81.

These data come from the SangsterLogP compilation.
